These results are taken from US10647747B2, “Cyclosporin derivatives and uses thereof” (S&T Global Inc., priority 2010, dated 2020).

*1 amine or outer side, *2 acyl side, *3 side chain or, on linkers, in order; H or OH if unused. Where a SMILES comes first, the peptide text is derived from it. [ ]: non-standard residue; d: D form. MeBmt = C/C=C/C[C@@H](C)[C@@H](O)[C@H](NC)C(=O)O; X10 = CN(C(CC(C)(C)OCc1ccccc1)C(=O)[*:2])[*:1]; X8 = CCN(CC)CCS[C@@H](C(=O)[*:2])N(C)[*:1]; X3 = CC=CCC(C)C(O)C(C(=O)[*:2])N(C)[*:1]; X13 = CCN(CC)CCCSC(C(=O)[*:2])N(C)[*:1]; X7 = CN(C(SCCCN1CCOCC1)C(=O)[*:2])[*:1]; NMeL = CN[CH](CC(C)C)C(=O)O; NMeV = CN[CH](C(=O)O)C(C)C; Abu = CC[CH](N)C(=O)O

The subject of the first test is HCV replicon in cell line ET (luc-ubi-neo/ET), Huh7 human hepatoma. Nature of the test: HCV subgenomic replicon assay, luciferase end point. In kind it is cell-based. The conditions noted are these: HCV subgenomic replicon, cell line ET (luc-ubi-neo/ET) Huh7, luciferase end point; read-out: Antiviral activity EC50. A general note: Replicon systems follow genome replication, usually without infectious particles.
With `CC=CCC(C)C(O)C1C(=O)NC(CC)C(=O)N(C)C(CSCCN(C)C(C)C)C(=O)N(C)C(CC(C)(C)O)C(=O)NC(C(C)C)C(=O)N(C)C(CC(C)C)C(=O)NC(C)C(=O)NC(C)C(=O)N(C)C(CC(C)C)C(=O)N(C)C(CC(C)C)C(=O)N(C)C(C(C)C)C(=O)N1C` (stereo not drawn), the EC50 (usually the concentration needed to bring the measured effect to its halfway point) turned out to be 100 nM.

Regarding `C/C=C/C[C@@H](C)[C@@H](O)[C@H]1C(=O)N[C@@H](CC)C(=O)N(C)[C@H](CSCCCN(CC)CC)C(=O)N(C)[C@@H](CC(C)(C)O)C(=O)N[C@@H](C(C)C)C(=O)N(C)[C@@H](CC(C)C)C(=O)N[C@@H](C)C(=O)N[C@H](C)C(=O)N(C)[C@@H](CC(C)C)C(=O)N(C)[C@@H](CC(C)C)C(=O)N(C)[C@@H](C(C)C)C(=O)N1C`, the EC50 was 80 nM.

For the molecule `CC=CCC(C)C(O)C1C(=O)NC(CC)C(=O)N(C)C(CSCCN2CCOCC2)C(=O)N(C)C(CC(C)(C)OC)C(=O)NC(C(C)C)C(=O)N(C)C(CC(C)C)C(=O)NC(C)C(=O)NC(C)C(=O)N(C)C(CC(C)C)C(=O)N(C)C(CC(C)C)C(=O)N(C)C(C(C)C)C(=O)N1C` (stereo not drawn), the half-maximal effective concentration (EC50) came out at 110 nM.

Consider `C/C=C/C[C@@H](C)[C@@H](O)[C@H]1C(=O)N[C@@H](CC)C(=O)N(C)[C@H](COCCCN2CCCCC2)C(=O)N(C)[C@@H](CC(C)(C)O)C(=O)N[C@@H](C(C)C)C(=O)N(C)[C@@H](CC(C)C)C(=O)N[C@@H](C)C(=O)N[C@H](C)C(=O)N(C)[C@@H](CC(C)C)C(=O)N(C)[C@@H](CC(C)C)C(=O)N(C)[C@@H](C(C)C)C(=O)N1C` [[(R)-(3-(N-Piperidinyl)propoxy)methyl-Sar]-3-[(γ-hydroxy)-N-MeLeu]-4-cyclosporin], for which the EC50 came out at 150 nM.

`CC=CCC(C)C(O)C1C(=O)NC(CC)C(=O)N(C)C(SCCCN2CCOCC2)C(=O)N(C)C(C(C)C)C(=O)NC(C(C)C)C(=O)N(C)C(CC(C)C)C(=O)NC(C)C(=O)NC(C)C(=O)N(C)C(CC(C)C)C(=O)N(C)C(CC(C)C)C(=O)N(C)C(C(C)C)C(=O)N1C` [[(S)-(3-(N-Morpholino)propylthio-Sar]-3-[N-MeVal]-4-cyclosporin] (cyclo([X3][Abu][X7][NMeV]V[NMeL]AA[NMeL][NMeL][NMeV]); configuration not given here): the EC50 was found to be 110 nM.

Consider `C/C=C/C[C@@H](C)[C@@H](O)[C@H]1C(=O)N[C@@H](CC)C(=O)N(C)[C@H](CSCCN(C)C)C(=O)N(C)[C@@H](CC(C)(C)O)C(=O)N[C@@H](C(C)C)C(=O)N(C)[C@@H](CC(C)C)C(=O)N[C@@H](C)C(=O)N[C@H](C)C(=O)N(C)[C@@H](CC(C)C)C(=O)N(C)[C@@H](CC(C)C)C(=O)N(C)[C@@H](C(C)C)C(=O)N1C` (single isomer, unassigned; isomer b), for which the concentration for a half-maximal effect (EC50) is 130 nM.

`C/C=C/C[C@@H](C)[C@@H](O)[C@H]1C(=O)N[C@@H](CC)C(=O)N(C)[C@H](COCCN(CC)CC)C(=O)N(C)[C@@H](CC(C)(C)OC)C(=O)N[C@@H](C(C)C)C(=O)N(C)[C@@H](CC(C)C)C(=O)N[C@@H](C)C(=O)N[C@H](C)C(=O)N(C)[C@@H](CC(C)C)C(=O)N(C)[C@@H](CC(C)C)C(=O)N(C)[C@@H](C(C)C)C(=O)N1C`: the concentration giving a half-maximal response (EC50) is 60 nM.

On to `C/C=C/C[C@@H](C)[C@@H](O)[C@H]1C(=O)N[C@@H](CC)C(=O)N(C)[C@H](CSCCN(C)C)C(=O)N(C)[C@@H](CC(C)C)C(=O)N[C@@H](C(C)C)C(=O)N(C)[C@@H](CC(C)C)C(=O)N[C@@H](C)C(=O)N[C@H](C)C(=O)N(C)[C@@H](CC(C)C)C(=O)N(C)[C@@H](CC(C)C)C(=O)N(C)[C@@H](C(C)C)C(=O)N1C` (single isomer, unassigned; isomer b) [[(S)-(2-(N,N-Dimethylamino)ethylthio)methyl-Sar]-3-cyclosporin (isomer B)], for which the half-maximal effective concentration (EC50) was found to be 170 nM.

Regarding `CC=CCC(C)C(O)C1C(=O)NC(CC)C(=O)N(C)C(CSCCCN2CCCCC2)C(=O)N(C)C(CC(C)(C)OC)C(=O)NC(C(C)C)C(=O)N(C)C(CC(C)C)C(=O)NC(C)C(=O)NC(C)C(=O)N(C)C(CC(C)C)C(=O)N(C)C(CC(C)C)C(=O)N(C)C(C(C)C)C(=O)N1C` (stereo not drawn), the half-maximal effective concentration (EC50) came out at 60 nM.

In the case of `CC=CCC(C)C(O)C1C(=O)NC(CC)C(=O)N(C)C(COCCN(CC)CC)C(=O)N(C)C(CC(C)(C)O)C(=O)NC(C(C)C)C(=O)N(C)C(CC(C)C)C(=O)NC(C)C(=O)NC(C)C(=O)N(C)C(CC(C)C)C(=O)N(C)C(CC(C)C)C(=O)N(C)C(C(C)C)C(=O)N1C` (stereo not drawn), the EC50 stood at 120 nM.

As to `CC=CCC(C)C(O)C1C(=O)NC(CC)C(=O)N(C)C(CSCCN2CCCCC2)C(=O)N(C)C(CC(C)(C)O)C(=O)NC(C(C)C)C(=O)N(C)C(CC(C)C)C(=O)NC(C)C(=O)NC(C)C(=O)N(C)C(CC(C)C)C(=O)N(C)C(CC(C)C)C(=O)N(C)C(C(C)C)C(=O)N1C` (stereo not drawn), the concentration giving a half-maximal response (EC50) worked out at 80 nM.

Regarding `CC=CCC(C)C(O)C1C(=O)NC(CC)C(=O)N(C)C(SCCCN(CC)CC)C(=O)N(C)C(C(C)C)C(=O)NC(C(C)C)C(=O)N(C)C(CC(C)C)C(=O)NC(C)C(=O)NC(C)C(=O)N(C)C(CC(C)C)C(=O)N(C)C(CC(C)C)C(=O)N(C)C(C(C)C)C(=O)N1C` [[(S)-3-(N,N-Diethylamino)propylthio-Sar]-3-[N-MeVal]-4-cyclosporin] (cyclo([X3][Abu][X13][NMeV]V[NMeL]AA[NMeL][NMeL][NMeV]); configuration not given here), the concentration giving a half-maximal response (EC50) is 70 nM.

The test is the same for the next values; noted with them: Hepatitis C virus, Huh-7, Table 14, HCV replicon luciferase; read-out: Antiviral activity EC50.
Take `C/C=C/C[C@@H](C)[C@@H](O)[C@H]1C(=O)N[C@@H](CC)C(=O)N(C)[C@H](CSCCN(C)C(C)C)C(=O)N(C)[C@@H](CC(C)(C)O)C(=O)N[C@@H](C(C)C)C(=O)N(C)[C@@H](CC(C)C)C(=O)N[C@@H](C)C(=O)N[C@H](C)C(=O)N(C)[C@@H](CC(C)C)C(=O)N(C)[C@@H](CC(C)C)C(=O)N(C)[C@@H](C(C)C)C(=O)N1C`: the EC50 is 40 nM.

Regarding `C/C=C/C[C@@H](C)[C@@H](O)[C@H]1C(=O)N[C@@H](CC)C(=O)N(C)[C@H](CSCCCN(C)C)C(=O)N(C)[C@@H](CC(C)(C)O)C(=O)N[C@@H](C(C)C)C(=O)N(C)[C@@H](CC(C)C)C(=O)N[C@@H](C)C(=O)N[C@H](C)C(=O)N(C)[C@@H](CC(C)C)C(=O)N(C)[C@@H](CC(C)C)C(=O)N(C)[C@@H](C(C)C)C(=O)N1C`, the EC50 was 50 nM.

Staying with this test, now noted: Table 12, HCV replicon luciferase; read-out: Antiviral activity EC50.
As for `CC=CCC(C)C(O)C1C(=O)NC(CC)C(=O)N(C)C(SCCN(CC(C)C)C(C)C)C(=O)N(C)C(CC(C)C)C(=O)NC(C(C)C)C(=O)N(C)C(CC(C)C)C(=O)NC(C)C(=O)NC(C)C(=O)N(C)C(CC(C)C)C(=O)N(C)C(CC(C)C)C(=O)N(C)C(C(C)C)C(=O)N1C` [(S)-2-(N-iso-Butyl-N-iso-propylamino)ethylthio-Sar]-3-cyclosporin], the half-maximal effective concentration (EC50) was found to be 480 nM.

As to “(S)-2-(N,N-Diethylamino)ethylthio-Sar]-3-[N-MeIle]-4-cyclosporin”, the EC50 is 40 nM.

As to `CC=CCC(C)C(O)C1C(=O)NC(CC)C(=O)N(C)C(SCCNCC(C)(C)C)C(=O)N(C)C(CC(C)C)C(=O)NC(C(C)C)C(=O)N(C)C(CC(C)C)C(=O)NC(C)C(=O)NC(C)C(=O)N(C)C(CC(C)C)C(=O)N(C)C(CC(C)C)C(=O)N(C)C(C(C)C)C(=O)N1C` [(S)-2-(N-neo-Pentylamino)ethylthio-Sar]-3-cyclosporin], the EC50 is 230 nM.

`C/C=C/C[C@@H](C)[C@@H](O)[C@H]1C(=O)N[C@@H](CC)C(=O)N(C)[C@@H](SCCN(CC)CC)C(=O)N(C)[C@@H](C(C)C)C(=O)N[C@@H](C(C)C)C(=O)N(C)[C@@H](CC(C)C)C(=O)N[C@@H](C)C(=O)N[C@H](C)C(=O)N(C)[C@@H](CC(C)C)C(=O)N(C)[C@@H](CC(C)C)C(=O)N(C)[C@@H](C(C)C)C(=O)N1C` [(S)-2-(N,N-Diethylamino)ethylthio-Sar]-3-[N-MeVal]-4-cyclosporin] (cyclo(A[dA][NMeL][NMeL][NMeV][MeBmt][Abu][X8][NMeV]V[NMeL])): the half-maximal effective concentration (EC50) came out at 40 nM.

The test is the same for the next values; noted with them: Table 13, HCV replicon luciferase; read-out: Antiviral activity EC50.
On to `CC=CCC(C)C(O)C1C(=O)NC(CC)C(=O)N(C)C(SCCCN2CCOCC2)C(=O)N(C)C(CC(C)(C)OCc2ccccc2)C(=O)NC(C(C)C)C(=O)N(C)C(CC(C)C)C(=O)NC(C)C(=O)NC(C)C(=O)N(C)C(CC(C)C)C(=O)N(C)C(CC(C)C)C(=O)N(C)C(C(C)C)C(=O)N1C` [[(S)-(3-(N-Morpholino)propylthio-Sar]-3-[(γ-benzyloxy)-N-MeLeu]-4-cyclosporin] (cyclo([X3][Abu][X7][X10]V[NMeL]AA[NMeL][NMeL][NMeV]); configuration not given here), for which the concentration for a half-maximal effect (EC50) turned out to be 280 nM.

In the case of `CC=CCC(C)C(O)C1C(=O)NC(CC)C(=O)N(C)CC(=O)N(C)C(CO)C(=O)NC(C(C)C)C(=O)N(C)C(CC(C)C)C(=O)NC(C)C(=O)NC(C)C(=O)N(C)C(CC(C)C)C(=O)N(C)C(CC(C)C)C(=O)N(C)C(C(C)C)C(=O)N1C` (stereo not drawn) [[N-MeSer]-4-cyclosporin], the EC50 came to 560 nM.

The same test, now with this note: Table 16, HCV replicon luciferase; read-out: Antiviral activity EC50.
With `C/C=C/C[C@@H](C)[C@@H](O)[C@H]1C(=O)N[C@@H](CC)C(=O)N(C)[C@H](CSCCCN2CCN(CC(C)C)CC2)C(=O)N(C)[C@@H](CC(C)(C)O)C(=O)N[C@@H](C(C)C)C(=O)N(C)[C@@H](CC(C)C)C(=O)N[C@@H](C)C(=O)N[C@H](C)C(=O)N(C)[C@@H](CC(C)C)C(=O)N(C)[C@@H](CC(C)C)C(=O)N(C)[C@@H](C(C)C)C(=O)N1C`, the EC50 came to 50 nM.

As to `CC=CCC(C)C(O)C1C(=O)NC(CC)C(=O)N(C)C(CSCCCN2CCN(C(C)C)CC2)C(=O)N(C)C(CC(C)(C)O)C(=O)NC(C(C)C)C(=O)N(C)C(CC(C)C)C(=O)NC(C)C(=O)NC(C)C(=O)N(C)C(CC(C)C)C(=O)N(C)C(CC(C)C)C(=O)N(C)C(C(C)C)C(=O)N1C` (stereo not drawn), the half-maximal effective concentration (EC50) came to 50 nM.

In the case of `CC=CCC(C)C(O)C1C(=O)NC(CC)C(=O)N(C)C(CSCCCN2CCN(CC)CC2)C(=O)N(C)C(CC(C)(C)O)C(=O)NC(C(C)C)C(=O)N(C)C(CC(C)C)C(=O)NC(C)C(=O)NC(C)C(=O)N(C)C(CC(C)C)C(=O)N(C)C(CC(C)C)C(=O)N(C)C(C(C)C)C(=O)N1C` (stereo not drawn), the EC50 was 50 nM.

As to `C/C=C/C[C@@H](C)[C@@H](O)[C@H]1C(=O)N[C@@H](CC)C(=O)N(C)[C@H](CSCCCCO)C(=O)N(C)[C@@H](CC(C)(C)O)C(=O)N[C@@H](C(C)C)C(=O)N(C)[C@@H](CC(C)C)C(=O)N[C@@H](C)C(=O)N[C@H](C)C(=O)N(C)[C@@H](CC(C)C)C(=O)N(C)[C@@H](CC(C)C)C(=O)N(C)[C@@H](C(C)C)C(=O)N1C` [[(S)-(4-Hydroxylbutylthio)methyl-Sar]-3-[(γ-hydroxy)-N-MeLeu]-4-cyclosporin], the concentration giving a half-maximal response (EC50) came to 20 nM.
